Patent US5700640A, “Inducers of gamma globin gene expression and screening assays therefor” (priority 1994, dated 1997)

Assays:
[1] = system: gamma globin reporter gene activity in gamma3'PE K562 cells (protein kinase C activation); assay: effect of indolactam V stereoisomers on basal and BA-induced reporter gene activity; format: cell-based, human; conditions: for effect on BA-induced globin gene expression (fold increment vs untreated cells) / effect on basal level globin gene expression: 11 μM or 0.4 μM; for effect on BA-induced globin gene expression (fold increment vs untreated cells): 1 hour before 5 mM BA for 24 hours; for effect on basal level globin gene expression: no BA
Method: The role of activated protein kinase C (pKC) in the activation of gamma globin gene expression by BA was investigated. […] The chemical structures of these compounds are shown in FIG. 13, panel A and B, respectively. Gamma3'PE cells were pre-incubated with either inducer (at 11 μM or 0.4 μM) or left untreated for 1 hour prior to treatment with 5 mMBA for 24 hours, followed by harvesting of the cells and assaying of luciferase activity. The results are shown in FIG. 14, Panel A (11 μM inducer) and FIG. 14, Panel B (0.4 μM inducer). […] Thus, it appears that these compounds act synergistically through pathways converging at some point downstream of the initial site of action of either inducer.

K562 cells = assay: in vitro
Method: (§1) To normalize luciferase units to the number of viable cells, parallel cell viability assays were performed using 3-(4,5-dimethylthiazol-2-yl)-2,5-diphenyltetrazolium bromide (MTT) (Vistica, D. T. et al. (1991) Cancer Res. 51:2515-2520). Transfected K562 cells were plated in 96 well dishes at a density of 2×10^4 and 2×10^3 cells per 100 μl per well. 24 hours later, the cells were treated with test compounds (at a final concentration of 5 mM). At 24, 50, 74 or 122 hours after treatment, 50 μl of 3 mg/ml MTT in PBS was added to each well. The 96 well plate was then incubated at 37° C. for 4 to 5 hours. The formazan derivatives formed from tetrazolium by viable cells were solubilized by the addition of 50 μl/well 25% SDS, pH 3, overnight at 37° C. The plates were than read at a wavelength of 550 nm.

in vitro = conditions: human, k562 cells
Method: as §1

[2] = system: gamma globin gene expression (gamma3'PE reporter) in K562 cells; assay: gamma globin promoter-luciferase reporter assay in stably transfected gamma3'PE K562 cells; conditions: for fold induction at 5000 µM: Homo sapiens, K562, 72 h, read-out: fold induction of reporter gene activity (FIG. 6); for reporter gene activity relative to VA or IVA (FIG. 5): 24 hours, fold-induction relative to isovaleric acid; for induction of gamma-globin reporter gene expression over time course (FIG. 3): 24-122 hr, normalized to viable cells
Method: The gamma globin 5' promoter and 3' enhancer fragments, alone or in combination with each other or another fragment, were inserted into restriction endonuclease sites flanking the coding sequences of the luciferase gene in pGL2 using standard recombinant DNA techniques (pGL2 was obtained commercially from Promega Biotech). Constructs were prepared which contained: 1) the gamma globin promoter alone upstream of the luciferase gene (gamma); 2) the gamma globin promoter upstream of the luciferase gene and the gamma globin 3' enhancer downstream of the luciferase gene (gamma3'PE); 3) the gamma globin promoter upstream of the luciferase gene and the SV40 enhancer downstream of the luciferase gene (gammaSV40); 4) the beta globin promoter upstream of the luciferase gene and the gamma globin 3' enhancer downstream of the luciferase gene Coeta3'PE); and 5) hypersensitive sites 2 and 3 G-IS2 and HS3) of the 5' globin enhancer upstream of the gamma globin promoter upstream of the luciferase gene and the gamma globin 3' enhancer downstream of the luciferase gene (HS2/3gamma3'PE). These constructs are illustrated schematically in FIG. 2.
The gamma globin-luciferase reporter gene constructs described in Example 1 were introduced into a human erythroleukemia cell line K562 (ATCC No. CCL 243). To create stable transfectants, K562 cells (5×10^6) in log phase were suspended in 400 μl HEPES buffered saline and then combined with 33.5 μg salmon testes DNA (Sigma), 1.5 μg neo plasmid (pPMT) and 15 μg reporter gene plasmid supercoiled that had been co-precipitated and suspended in 400 μl HEPES buffered saline. The DNA-cell mixture was electroporated at settings of 0.25 KV and 960 μFD using a Gene Pulser (BioRad Inc.) electropotation apparatus.
The cells were allowed to recover 10 minutes at room temperature, then added to 10 ml complete RPMI cell culture medium. Cell debris was removed by centrifugation at 1000 rpm for 5 minutes. The live cells were suspended in 20 ml RPMI in 2×10 cm dishes and grown in non-selective media for 48 hours. Stably transfected cells were then selected by growing the cells in media containing 300 μg/ml G418 for about one month. During this time the cells were split 1:5 every 3 to 4 days. Once the lines were stable, they were carried in 100 μg/ml G418. The cell lines were designated according to the reporter gene construct that was introduced into the cell line. For example, a cell line carrying the gamma'3PE construct was designated gamma3'PE. Transient transfections were carried out similarly except that the neo plasmid was omitted from the electroporation solution and the cells were not subjected to G418 selection.
K562 host cells carrying gamma globin-reporter gene constructs were used to lo screen compounds for their ability to induce globin gene expression, as measured by increased reporter gene activity in the host cells upon treatment with the compound. The host cells described in Example 2 were grown to log phase cells and plated at a density of 2×10^5 /ml in RPMI media without G418. After 24 hours, compounds to be assayed for their ability to induce globin gene expression were dissolved in RPMI media at a concentration of 5 mM and added to the K562 stable transfectants. Mock-treated stably transfected K562 cells served as a negative control. The cells were incubated with the test compounds at 37° C. for various time periods (e.g., 24, 50, 74 and 122 hours).
After induction with the test compounds, the cells were harvested, lysed and assayed for reporter gene activity (i.e., luciferase activity) as follows. Cells were collected, washed once with PBS and lysed in 200 μl Cell Culture Lysis 1 X Reagent (Promega Luciferase Assay System) consisting of 25 mM Tris-Phosphate pH 7.8; 2 mM DTT; 2 mM 1,2-diaminocyclohexane-N,N,N,N-tetraacetic acid; 10% glycerol; 1% Triton X-100.

[3] = system: BA-mediated induction of luciferase activity in gamma3'PE K562 cells; assay: effect of transport inhibitors on BA-induced reporter gene activity in gamma3'PE K562 cells; format: cell-based, human; conditions: acetazolamide 1 mM, SITS 10 μM, amiloride 10 μM; 24 hours with BA
Method: To characterize uptake of butyric acid by erythroid cells, K562 cells stably transfected with gamma3'PE were treated with BA in the presence of various transport inhibitors. […] Cells were maintained in the continuous presence of both BA and the inhibitor for 24 hours and then luciferase activity in the cells was measured.

gamma globin mRNA = assay: Northern hybridization of gamma globin mRNA in treated K562 cells; format: cell-based, human; conditions: for Raw Value, gamma globin RNA / Normalized Value, gamma globin RNA: K562 cells, 5 mM, 96 hours; for Normalized Value, gamma globin RNA: normalized to 28S ribosomal RNA; for gamma globin mRNA steady state level: vs untreated cells or cells treated with BA
Method: (§2) Total RNA was prepared by the method of McDonald as described in Sambrook et al., (1989) Molecular Cloning: A Laboratory Manual, 2nd Edition, Cold Spring Harbor Laboratory Press. 10 μg total cellular RNA was electrophoresed through agarose gels containing 3.3% formaldehyde. The electrophoresed RNA was then transferred to nitrocellulose filters by standard methods. Each sample was hybridized to specific probes for gamma globin mRNA, mRNA encoding the erythroid specific transcription factor GATA-1 and 28S ribosomal RNA (which was used for standardization). The gamma globin and GATA-1 probes were cDNA probes, which were labeled with ^32 p by random priming reactions (Promega Biotech Inc.). The 28S ribosomal RNA probe was an oligonucleotide having the sequence 5' […] 3' (SEQ ID NO: 3), which was labeled by 5' end labeling using T4 polynucleotide kinase (New England Biolabs). Nucleotide probes were hybridized to the RNA nitrocellulose filters according to standard techniques. After hybridization, radioactive signals on the nitrocellulose filters were directly quantified using a BioRad GS-250 Molecular Imager. mRNA hybridization intensities were normalized to the amount of 28S ribosomal RNA present for each sample.

GATA-1 mRNA = assay: Northern hybridization of GATA-1 mRNA in treated K562 cells; format: cell-based, human; conditions: for induction of mRNA encoding GATA-1: normalized data; for Normalized Value, GATA-1 RNA: normalized to 28S ribosomal RNA
Method: as §2

[4] = compared with induction mediated by BA

CC(C)[C@H]1C(=O)N[C@H](CO)Cc2c[nH]c3cccc(c23)N1C [(-) indolactam V]
effect on BA-induced globin gene expression (fold increment vs untreated cells) [1]: same fold increment
effect on basal level globin gene expression [1]: significant stimulatory effect on basal level globin gene expression
net increase in gene expression of combined treatment with BA ([1]; combined (-) indolactam V and 5 mM BA): well above the arithmetic sum of the level of induction achieved by either of these compounds separately

CSCC(=O)O [MtAA, methylthioacetic acid]
cell death accompanying gamma globin gene induction (K562 cells): significantly less cell death than induction mediated by BA
viability at 72 h, 5000 µM (in vitro): > 50%
fold induction at 5000 µM [2]: ~5

CCC(=O)O [propionic acid]
reporter gene activity relative to VA or IVA (FIG. 5) ([2]; 5 mM): detectable reporter gene activity, although to a lesser extent than VA or IVA

CC(=O)Nc1nnc(S(N)(=O)=O)s1 [acetazolamide]
effect on BA-mediated induction of luciferase activity [3]: did not affect BA-mediated induction of luciferase activity

C#CCCC(=O)O [4PyA, 4-pentynoic acid]
cell death accompanying gamma globin gene induction (K562 cells): significantly less cell death than induction mediated by BA
viability at 72 h, 5000 µM (in vitro): > 50%
fold induction at 5000 µM [2]: ~4

N=C(N)NC(=O)c1nc(Cl)c(N)nc1N [amiloride]
effect on BA-mediated induction of luciferase activity [3]: did not affect BA-mediated induction of luciferase activity

O=C(O)CCc1ccccc1 [3-phenyl propionic acid]
reporter gene activity relative to VA or IVA (FIG. 5) ([2]; 5 mM): detectable reporter gene activity, although to a lesser extent than VA or IVA

O=C(O)CCCCc1ccccc1 [5-phenyl valeric acid]
reporter gene activity relative to VA or IVA (FIG. 5) ([2]; 5 mM): detectable reporter gene activity, although to a lesser extent than VA or IVA

CC(=O)Nc1ccc(C=Cc2ccc(N=C=S)cc2S(=O)(=O)O)c(S(=O)(=O)O)c1 [SITS]
effect on BA-mediated induction of luciferase activity [3]: did not affect BA-mediated induction of luciferase activity

COCC(=O)O [MoAA, methoxyacetic acid]
cell death accompanying gamma globin gene induction (K562 cells; [4]): significantly less cell death than induction mediated by BA
viability at 72 h, 5000 µM (in vitro): > 50%
fold induction at 5000 µM [2]: ~4

O=C(O)CCCc1ccccc1 [4-phenyl butyric acid]
reporter gene activity relative to VA or IVA (FIG. 5) ([2]; 5 mM): detectable reporter gene activity to a slightly greater extent than VA or IVA

CC(C)CC(=O)O [IVA, isovaleric acid]
cell death accompanying gamma globin gene induction (K562 cells; [4]): significantly less cell death than induction mediated by BA
induction of gamma-globin reporter gene expression over time course (FIG. 3) ([2]; 5 mM): lower but sustained induction of reporter gene expression
Raw Value, gamma globin RNA (gamma globin mRNA): 5.94 × 10^6
Normalized Value, gamma globin RNA (gamma globin mRNA): 5.3 × 10^6
gamma globin mRNA steady state level (gamma globin mRNA): higher steady state level of gamma globin mRNA than untreated cells or cells treated with BA
induction of mRNA encoding GATA-1 (GATA-1 mRNA): significant induction of mRNA encoding GATA-1
Normalized Value, GATA-1 RNA (GATA-1 mRNA; K562 cells, 5 mM, 96 hours): 1.3 × 10^6

CCCCC(=O)O [VA, valeric acid]
cell death accompanying gamma globin gene induction (K562 cells): significantly less cell death than induction mediated by BA
cell viability relative to untreated cells (FIG. 7) (K562 cells): equivalent to that of untreated cells
induction of gamma-globin reporter gene expression over time course (FIG. 3) ([2]; 5 mM): lower but sustained induction of reporter gene expression
induction relative to BA at 74 hr (FIG. 4) ([2]; 5 mM, normalized to fold induction by BA, 74 hr): marginally better inducers than BA at 74 hr
induction relative to BA at 122 hr (FIG. 4) ([2]; 5 mM, normalized to fold induction by BA, 122 hr): significantly better inducers than BA at 122 hr post induction
fold induction at 5000 µM (gamma globin mRNA; Homo sapiens, K562, 96 h, read-out: Fold Induction, gamma globin RNA): 4.4
Raw Value, gamma globin RNA (gamma globin mRNA): 3.35 × 10^6
Normalized Value, gamma globin RNA (gamma globin mRNA): 3.3 × 10^6
gamma globin mRNA steady state level (gamma globin mRNA): higher steady state level of gamma globin mRNA than untreated cells or cells treated with BA
fold induction at 5000 µM (GATA-1 mRNA; Homo sapiens, K562, 96 h, read-out: Fold Induction, GATA-1 RNA): 6
Raw Value, GATA-1 RNA (GATA-1 mRNA; K562 cells, 5 mM, 96 hours): 3.96 × 10^5
induction of mRNA encoding GATA-1 (GATA-1 mRNA): significant induction of mRNA encoding GATA-1
Normalized Value, GATA-1 RNA (GATA-1 mRNA; K562 cells, 5 mM, 96 hours): 3.5 × 10^5

CC(C)[C@@H]1C(=O)N[C@@H](CO)Cc2c[nH]c3cccc(c23)N1C [(+) indolactam V]
effect on BA-induced globin gene expression (fold increment vs untreated cells) [1]: same fold increment
effect on basal level globin gene expression [1]: unaffected

CCCCC(=O)OC(=O)CCCC [valeric acid anhydride]
reporter gene activity relative to VA or IVA (FIG. 5) ([2]; 5 mM): detectable reporter gene activity, although to a lesser extent than VA or IVA
